Assay results reported in the NIST ThermoML archive (doi:10.1021/acs.jced.7b00866).
Numbers after ± are expanded uncertainties.

Conditions: Liquid, Capillary tube (Ostwald / Ubbelohde) method

CCCCCCCCCCCC [dodecane]
viscosity (298.2 K, 6020 kPa): 1.461 ± 0.026 mPa·s
viscosity (298.2 K, 8050 kPa): 1.497 ± 0.032 mPa·s
viscosity (298.2 K, 10020 kPa): 1.533 ± 0.034 mPa·s
viscosity (303.3 K, 10020 kPa): 1.394 ± 0.03 mPa·s
viscosity (303.4 K, 8050 kPa): 1.365 ± 0.03 mPa·s
viscosity (304.9 K, 6020 kPa): 1.348 ± 0.028 mPa·s
viscosity (313.3 K, 10020 kPa): 1.184 ± 0.025 mPa·s
viscosity (313.4 K, 8000 kPa): 1.162 ± 0.025 mPa·s
viscosity (314.5 K, 5990 kPa): 1.135 ± 0.025 mPa·s
viscosity (323.1 K, 8010 kPa): 1.007 ± 0.022 mPa·s
viscosity (323.4 K, 6050 kPa): 0.9748 ± 0.025 mPa·s
viscosity (323.4 K, 10000 kPa): 1.021 ± 0.023 mPa·s
viscosity (333.3 K, 8030 kPa): 0.8787 ± 0.021 mPa·s
viscosity (333.4 K, 10000 kPa): 0.8918 ± 0.022 mPa·s
viscosity (334.1 K, 6010 kPa): 0.8555 ± 0.023 mPa·s
viscosity (343.2 K, 8070 kPa): 0.7787 ± 0.02 mPa·s
viscosity (343.3 K, 5990 kPa): 0.7562 ± 0.02 mPa·s
viscosity (343.3 K, 10010 kPa): 0.79 ± 0.02 mPa·s
viscosity (353.4 K, 6080 kPa): 0.6746 ± 0.021 mPa·s
viscosity (353.4 K, 9980 kPa): 0.703 ± 0.019 mPa·s
viscosity (353.6 K, 8020 kPa): 0.6919 ± 0.02 mPa·s
viscosity (363.3 K, 10050 kPa): 0.6332 ± 0.019 mPa·s
viscosity (363.7 K, 8020 kPa): 0.6209 ± 0.019 mPa·s
viscosity (364 K, 6040 kPa): 0.6028 ± 0.019 mPa·s
viscosity (373.1 K, 10070 kPa): 0.5743 ± 0.019 mPa·s
viscosity (373.9 K, 8020 kPa): 0.5622 ± 0.019 mPa·s
viscosity (374 K, 6000 kPa): 0.5462 ± 0.019 mPa·s
viscosity (383 K, 6010 kPa): 0.5011 ± 0.019 mPa·s
viscosity (383.2 K, 10000 kPa): 0.523 ± 0.019 mPa·s
viscosity (383.4 K, 8050 kPa): 0.5137 ± 0.019 mPa·s
viscosity (393 K, 10020 kPa): 0.4798 ± 0.018 mPa·s
viscosity (393.1 K, 6080 kPa): 0.4584 ± 0.019 mPa·s
viscosity (393.6 K, 8030 kPa): 0.4694 ± 0.018 mPa·s
viscosity (403 K, 6040 kPa): 0.4213 ± 0.018 mPa·s
viscosity (403.1 K, 10040 kPa): 0.4407 ± 0.018 mPa·s
viscosity (404.1 K, 8020 kPa): 0.4304 ± 0.018 mPa·s
viscosity (412.9 K, 10010 kPa): 0.4076 ± 0.018 mPa·s
viscosity (413.2 K, 6080 kPa): 0.3885 ± 0.018 mPa·s
viscosity (413.7 K, 7990 kPa): 0.3987 ± 0.018 mPa·s
viscosity (423 K, 6080 kPa): 0.3581 ± 0.018 mPa·s
viscosity (423.4 K, 10000 kPa): 0.3765 ± 0.018 mPa·s
viscosity (423.9 K, 8050 kPa): 0.3686 ± 0.018 mPa·s
viscosity (432.9 K, 10020 kPa): 0.3504 ± 0.018 mPa·s
viscosity (433.2 K, 6010 kPa): 0.3334 ± 0.018 mPa·s
viscosity (433.3 K, 8000 kPa): 0.3405 ± 0.018 mPa·s
viscosity (443.2 K, 10050 kPa): 0.3257 ± 0.018 mPa·s
viscosity (443.5 K, 6020 kPa): 0.3092 ± 0.018 mPa·s
viscosity (443.5 K, 8010 kPa): 0.3152 ± 0.018 mPa·s
viscosity (453.3 K, 6020 kPa): 0.2855 ± 0.018 mPa·s
viscosity (453.3 K, 9950 kPa): 0.3036 ± 0.018 mPa·s
viscosity (454 K, 8040 kPa): 0.2936 ± 0.018 mPa·s
viscosity (463.3 K, 10010 kPa): 0.2839 ± 0.018 mPa·s
viscosity (463.4 K, 6040 kPa): 0.2664 ± 0.018 mPa·s
viscosity (464.1 K, 8020 kPa): 0.2738 ± 0.018 mPa·s
viscosity (473.3 K, 10050 kPa): 0.2657 ± 0.018 mPa·s
viscosity (473.4 K, 6040 kPa): 0.251 ± 0.018 mPa·s
viscosity (473.5 K, 8010 kPa): 0.2525 ± 0.018 mPa·s
viscosity (483.4 K, 6050 kPa): 0.2305 ± 0.018 mPa·s
viscosity (483.4 K, 8080 kPa): 0.2405 ± 0.018 mPa·s
viscosity (483.4 K, 10000 kPa): 0.2489 ± 0.018 mPa·s
viscosity (493.2 K, 10050 kPa): 0.2338 ± 0.018 mPa·s
viscosity (493.4 K, 6040 kPa): 0.216 ± 0.018 mPa·s
viscosity (493.4 K, 8010 kPa): 0.2247 ± 0.018 mPa·s
viscosity (502.7 K, 7960 kPa): 0.2075 ± 0.018 mPa·s
viscosity (503.2 K, 10010 kPa): 0.2197 ± 0.018 mPa·s
viscosity (503.4 K, 6080 kPa): 0.2005 ± 0.018 mPa·s
viscosity (513 K, 8040 kPa): 0.1945 ± 0.018 mPa·s
viscosity (513 K, 10000 kPa): 0.207 ± 0.018 mPa·s
viscosity (514.2 K, 6050 kPa): 0.186 ± 0.018 mPa·s
viscosity (523 K, 8000 kPa): 0.1822 ± 0.018 mPa·s
viscosity (523.7 K, 5970 kPa): 0.1737 ± 0.018 mPa·s
viscosity (523.7 K, 10040 kPa): 0.1949 ± 0.018 mPa·s
viscosity (533.3 K, 8040 kPa): 0.1736 ± 0.018 mPa·s
viscosity (533.5 K, 6040 kPa): 0.1638 ± 0.018 mPa·s
viscosity (533.5 K, 10070 kPa): 0.1825 ± 0.018 mPa·s
viscosity (542.9 K, 6010 kPa): 0.1526 ± 0.018 mPa·s
viscosity (542.9 K, 8060 kPa): 0.1603 ± 0.018 mPa·s
viscosity (542.9 K, 9950 kPa): 0.1682 ± 0.018 mPa·s
viscosity (552.9 K, 6070 kPa): 0.1419 ± 0.018 mPa·s
viscosity (552.9 K, 10020 kPa): 0.158 ± 0.018 mPa·s
viscosity (553.2 K, 8010 kPa): 0.1506 ± 0.018 mPa·s
viscosity (563 K, 6050 kPa): 0.1337 ± 0.018 mPa·s
viscosity (563 K, 8020 kPa): 0.1414 ± 0.018 mPa·s
viscosity (563 K, 10020 kPa): 0.1509 ± 0.018 mPa·s
viscosity (573 K, 6010 kPa): 0.124 ± 0.018 mPa·s
viscosity (573 K, 8020 kPa): 0.1347 ± 0.018 mPa·s
viscosity (573 K, 10040 kPa): 0.1437 ± 0.018 mPa·s
viscosity (582.8 K, 6000 kPa): 0.1159 ± 0.018 mPa·s
viscosity (582.8 K, 10010 kPa): 0.132 ± 0.018 mPa·s
viscosity (582.9 K, 7960 kPa): 0.1265 ± 0.018 mPa·s
viscosity (592.9 K, 8070 kPa): 0.12 ± 0.018 mPa·s
viscosity (593 K, 6020 kPa): 0.1104 ± 0.018 mPa·s
viscosity (593 K, 10000 kPa): 0.1263 ± 0.018 mPa·s
viscosity (602.9 K, 8020 kPa): 0.1128 ± 0.018 mPa·s
viscosity (603.1 K, 6010 kPa): 0.1048 ± 0.018 mPa·s
viscosity (603.1 K, 10010 kPa): 0.1186 ± 0.018 mPa·s
viscosity (612.9 K, 8020 kPa): 0.1058 ± 0.018 mPa·s
viscosity (613.1 K, 6040 kPa): 0.0969 ± 0.018 mPa·s
viscosity (613.1 K, 10010 kPa): 0.1116 ± 0.018 mPa·s
viscosity (623 K, 7990 kPa): 0.1003 ± 0.018 mPa·s
viscosity (623.2 K, 6050 kPa): 0.0908 ± 0.018 mPa·s
viscosity (623.2 K, 10050 kPa): 0.1056 ± 0.018 mPa·s
viscosity (632.8 K, 8040 kPa): 0.0933 ± 0.018 mPa·s
viscosity (633.5 K, 6020 kPa): 0.0848 ± 0.018 mPa·s
viscosity (633.5 K, 10010 kPa): 0.0992 ± 0.018 mPa·s
viscosity (643 K, 8050 kPa): 0.0878 ± 0.018 mPa·s
viscosity (643.4 K, 6020 kPa): 0.0789 ± 0.018 mPa·s
viscosity (643.4 K, 10010 kPa): 0.0943 ± 0.018 mPa·s
viscosity (652.9 K, 8020 kPa): 0.0824 ± 0.018 mPa·s
viscosity (653.4 K, 6070 kPa): 0.0733 ± 0.018 mPa·s
viscosity (653.4 K, 10040 kPa): 0.087 ± 0.018 mPa·s
viscosity (663.1 K, 8010 kPa): 0.0775 ± 0.018 mPa·s
viscosity (663.2 K, 6010 kPa): 0.0682 ± 0.018 mPa·s
viscosity (663.2 K, 10050 kPa): 0.0823 ± 0.018 mPa·s
viscosity (672.9 K, 8010 kPa): 0.0727 ± 0.018 mPa·s
viscosity (673.5 K, 6040 kPa): 0.0635 ± 0.018 mPa·s
viscosity (673.5 K, 9980 kPa): 0.0785 ± 0.018 mPa·s
viscosity (683.2 K, 8050 kPa): 0.0685 ± 0.018 mPa·s
viscosity (683.2 K, 10040 kPa): 0.0746 ± 0.018 mPa·s
viscosity (683.3 K, 6010 kPa): 0.059 ± 0.018 mPa·s
viscosity (693.2 K, 6010 kPa): 0.0548 ± 0.018 mPa·s
viscosity (693.2 K, 8020 kPa): 0.0643 ± 0.018 mPa·s
viscosity (693.2 K, 10010 kPa): 0.0712 ± 0.018 mPa·s
